Data as given in patent US11225505B2, “Antimicrobial polymyxin derivative compounds” (MONASH UNIVERSITY, priority 2015, dated 2022).
In brackets after ≈: the same amount, converted by molar mass. Like-named read-outs stand apart in the source and are kept apart here. Where a SMILES comes first, the peptide text is derived from it. Bridges are numbered along the chain shown (N, C = ends). [ ]: non-standard residue; d: D form. The star is where a group is joined. Propanoyl(3-indol-3-yl) = O=C(CCc1c[nH]c2ccccc12)*; X14 = O=C(c1ccc(C(F)(F)F)cn1)*; X51 = O=C(c1cc(Cl)nc(Cl)c1)*; X48 = O=C(c1ccc(Cl)nc1)*; Dab = NCC[C@H](N)C(=O)O; X68 = O=C(c1coc(Br)c1)*; Abu = CC[C@H](N)C(=O)O; Dap = NC[C@H](N)C(=O)O

Columns and labels:
[1] = tested on: Acinetobacter baumannii FADDI-AB030; test: microbe, parasite or virus in culture; format: cell-based
Method in brief: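 Broth microdilution MIC in cation-adjusted Mueller-Hinton broth per CLSI M100-S24; lipopeptides tested as TFA salts. FADDI-AB030 is a multidrug-resistant clinical isolate. Polymyxin B sulphate served as control.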

mouse kidney = test: Nephrotoxicity in a mouse model (kidney histology); format: in vivo; conditions: mice (n=3), subcutaneous 12 mg/kg free base every 2 h, 6 doses in one day; for Max Overall Kidney Histological Score: kidney ~20 h after last dose; for Max Kidney Histological Score: semiquantitative score 0 to +5
Method: Polymyxin B sulphate and colistin sulphate were supplied by Betapharma (Shanghai Co., Ltd, China). Stock solutions of compounds in saline (5 mg base/mL) were stored at 4° C. before use. Mice (n=3) were subcutaneously administered with the compound at 12 mg/kg of the free base form every 2 h, 6 doses in one day. At approximately 20 h after the last dose, mice were euthanised by inhalation of an overdose of isoflurane. Immediately after blood sampling, the right kidney from each mouse was collected immediately and placed in 10% formalin in 5 mL plastic tubes and the left kidney placed in a pre-weighed 14 mL plastic tubes, weighed again and stored at −20° C. pending homogenization and analysis of polymyxin B and colistin. The frozen kidney samples were thawed, homogenized in 2 mL of Milli-Q water and stored in a −20° C. freezer. The formalin-fixed kidneys were then sent to the Australian Phenomics Network-Histopathology and Organ Pathology (The University of Melbourne, Parkville, Australia) for histological examination. Samples were examined by a pathologist who was blind to the treatment groups.
Lesions were rated as follows: mild acute tubular damage with tubular dilation, prominent nuclei and a few pale tubular casts (Grade 1); severe acute tubular damage with necrosis of tubular epithelial cells and numerous tubular casts (Grade 2); acute cortical necrosis/infarction of tubules and glomeruli with or without papillary necrosis (Grade 3). The grades were given the following scores: grade 1=1, grade 2=4, and grade 3=10. The percentage of area of the kidney slice showing histological damage was scored as follows: <1%=0, 1 to <5%=1, 5 to <10%=2, 10 to <20%=3, 20 to <30%=4, 30 to <40%=5, and >40%=6. The overall kidney histological score was calculated as the product of the percentage score and grade score. These scores were then expressed as a semiquantitative score (Kidney Histological Score) on a scale of 0 to +5 for renal histological changes. These scores were assigned as follows: SQS 0=no significant change (overall score, <1); SQS +1=mild damage (overall score, 1 to <15); SQS +2=mild to moderate damage (overall score, 15 to <30); SQS +3=moderate damage (overall score, 30 to <45); SQS +4=moderate to severe damage (overall score, 45 to <60); and SQS +5=severe damage (overall score, ≥60) (Yousef, J., et al., (2011) Antimicrob. Agents and Chemother. 55 (9), 4044-4049).
Any compound with a kidney histological score of ≤+1.0 is considered to have a low nephrotoxicity in this model.

[2] = tested on: Enterobacter cloacae FADDI-EC003; format: cell-based
Method in brief: (§1)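 Broth microdilution MIC per CLSI in cation-adjusted Mueller-Hinton broth, lipopeptides tested as TFA salts. Polymyxin B sulphate served as control.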

[3] = tested on: Pseudomonas aeruginosa FADDI-PA01; format: cell-based
Method in brief: as §1

[4] = tested on: Enterobacter cloacae FADDI-EC001; format: cell-based
Method in brief: (§2)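 The read-out is the MIC, obtained by CLSI broth microdilution (M100-S24) in cation-adjusted Mueller-Hinton broth. The compounds were lipopeptide TFA salts, and polymyxin B sulphate served as control.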

[5] = tested on: Klebsiella pneumoniae FADDI-KP022; format: cell-based
Method in brief: as §1

[6] = tested on: Acinetobacter baumannii ATCC 17978; format: cell-based
Method in brief: as §1

[7] = tested on: Pseudomonas aeruginosa FADDI-PA038; format: cell-based
Method in brief: as §1

[8] = tested on: Klebsiella pneumoniae FADDI-KP032; format: cell-based
Method in brief: as §1

[9] = tested on: Pseudomonas aeruginosa FADDI-PA022; format: cell-based
Method in brief: as §1

[10] = tested on: Acinetobacter baumannii FADDI-AB034; format: cell-based
Method in brief: as §1

[11] = tested on: Pseudomonas aeruginosa ATCC 27853; format: cell-based
Method in brief: as §1

[12] = tested on: Klebsiella pneumoniae Kp BM1; format: cell-based
Method in brief: as §2

[13] = tested on: Enterobacter cloacae FADDI-EC006; format: cell-based
Method in brief: as §1

[14] = A. baumannii FADDI-AB030, CAMHB broth microdilution
[15] = E. cloacae FADDI-EC003, CAMHB broth microdilution
[16] = P. aeruginosa FADDI-PA01, CAMHB broth microdilution
[17] = E. cloacae FADDI-EC001, CAMHB broth microdilution
[18] = K. pneumoniae FADDI-KP022, CAMHB broth microdilution
[19] = A. baumannii ATCC 17978, CAMHB broth microdilution
[20] = P. aeruginosa FADDI-PA038, CAMHB broth microdilution
[21] = K. pneumoniae FADDI-KP032, CAMHB broth microdilution
[22] = P. aeruginosa FADDI-PA022, CAMHB broth microdilution
[23] = A. baumannii FADDI-AB034, CAMHB broth microdilution
[24] = P. aeruginosa ATCC 27853, CAMHB broth microdilution
[25] = K. pneumoniae Kp BM1, CAMHB broth microdilution
[26] = E. cloacae FADDI-EC006, CAMHB broth microdilution

Compound | Minimum inhibitory concentration [1, 14] | Max Overall Kidney Histological Score (mouse kidney) | Max Kidney Histological Score (mouse kidney) | Minimum inhibitory concentration [2, 15] | Minimum inhibitory concentration [3, 16] | Minimum inhibitory concentration [4, 17] | Minimum inhibitory concentration [5, 18] | Minimum inhibitory concentration [6, 19] | Minimum inhibitory concentration [7, 20] | Minimum inhibitory concentration [8, 21] | Minimum inhibitory concentration [9, 22] | Minimum inhibitory concentration [10, 23] | Minimum inhibitory concentration [11, 24] | Minimum inhibitory concentration [12, 25] | Minimum inhibitory concentration [13, 26] | Minimum inhibitory concentration ([1]; FADDI-AB030) | Minimum inhibitory concentration ([2]; FADDI-EC003) | Minimum inhibitory concentration ([3]; FADDI-) | Minimum inhibitory concentration ([4]; FADDI-EC001) | Minimum inhibitory concentration ([5]; FADDI-KP022) | further results
CC[C@@H]1NC(=O)[C@@H](CC(C)C)NC(=O)[C@H](CCN)NC(=O)[C@@H](NC(=O)[C@H](CN)NC(=O)[C@@H](NC(=O)[C@H](CCN)NC(=O)c2ccc(Cl)nc2)[C@@H](C)O)CCNC(=O)[C@H]([C@@H](C)O)NC(=O)[C@H](CCN)NC(=O)[C@H](CCN)NC1=O [Compound 4] (X48-[Dab]T[Dap][Dab][Dab][dL][Abu][Dab][Dab]T; lactam 4-C) | 2 µg/mL (≈ 1.78 µM) | 0.0 | 0 (SQS 0=no significant change (overall score, <1)) | 0.5 µg/mL (≈ 0.444 µM) | 0.5 µg/mL (≈ 0.444 µM) | 2 µg/mL (≈ 1.78 µM) | 0.5 µg/mL (≈ 0.444 µM) | 1 µg/mL (≈ 0.888 µM) | 1 µg/mL (≈ 0.888 µM) | 1 µg/mL (≈ 0.888 µM) | 1 µg/mL (≈ 0.888 µM) | 1 µg/mL (≈ 0.888 µM) | 0.5 µg/mL (≈ 0.444 µM) | 2 µg/mL (≈ 1.78 µM) | 4 µg/mL (≈ 3.55 µM) | – | – | – | – | – | –
CC[C@@H]1NC(=O)[C@@H](CC(C)C)NC(=O)[C@H](CCN)NC(=O)[C@@H](NC(=O)[C@H](CN)NC(=O)[C@@H](NC(=O)[C@H](CCN)NC(=O)c2cc(Cl)nc(Cl)c2)[C@@H](C)O)CCNC(=O)[C@H]([C@@H](C)O)NC(=O)[C@H](CCN)NC(=O)[C@H](CCN)NC1=O [Compound 19] (X51-[Dab]T[Dap][Dab][Dab][dL][Abu][Dab][Dab]T; lactam 4-C) | – | 0.0 | 0 (SQS 0=no significant change (overall score, <1)) | – | – | – | – | – | – | – | – | – | – | – | – | – | – | – | – | – | –
CC[C@@H]1NC(=O)[C@@H](CC(C)C)NC(=O)[C@H](CCN)NC(=O)[C@@H](NC(=O)[C@H](CN)NC(=O)[C@@H](NC(=O)[C@H](CCN)NC(=O)c2ccc(C(F)(F)F)cn2)[C@@H](C)O)CCNC(=O)[C@H]([C@@H](C)O)NC(=O)[C@H](CCN)NC(=O)[C@H](CCN)NC1=O [Compound 38] (X14-[Dab]T[Dap][Dab][Dab][dL][Abu][Dab][Dab]T; lactam 4-C) | 1 µg/mL (≈ 0.862 µM) | 0.0 | 0 (SQS 0=no significant change (overall score, <1)) | 0.25 µg/mL (≈ 0.215 µM) | 0.25 µg/mL (≈ 0.215 µM) | <0.125 µg/mL | 0.25 µg/mL (≈ 0.215 µM) | 1 µg/mL (≈ 0.862 µM) | 1 µg/mL (≈ 0.862 µM) | <0.125 µg/mL | 0.25 µg/mL (≈ 0.215 µM) | 0.25 µg/mL (≈ 0.215 µM) | 0.25 µg/mL (≈ 0.215 µM) | <0.125 µg/mL | 0.25 µg/mL (≈ 0.215 µM) | – | – | – | – | – | –
CC[C@@H]1NC(=O)[C@@H](CC(C)C)NC(=O)[C@H](CCN)NC(=O)[C@@H](NC(=O)[C@H](CN)NC(=O)[C@@H](NC(=O)[C@H](CCN)NC(=O)c2coc(Br)c2)[C@@H](C)O)CCNC(=O)[C@H]([C@@H](C)O)NC(=O)[C@H](CCN)NC(=O)[C@H](CCN)NC1=O [Compound 103] (X68-[Dab]T[Dap][Dab][Dab][dL][Abu][Dab][Dab]T; lactam 4-C) | – | – | – | – | – | – | – | – | – | – | – | – | – | – | – | 1 µg/mL (≈ 0.862 µM) | 0.5 µg/mL (≈ 0.431 µM) | 0.5 µg/mL (≈ 0.431 µM) | 0.5 µg/mL (≈ 0.431 µM) | <0.125 µg/mL | Minimum inhibitory concentration ([6]; ATCC 17978): 1 µg/mL (≈ 0.862 µM); Minimum inhibitory concentration ([7]; FADDI-PA038): 2 µg/mL (≈ 1.72 µM); Minimum inhibitory concentration ([8]; FADDI-KP032): 0.5 µg/mL (≈ 0.431 µM); Minimum inhibitory concentration ([9]; FADDI-PA022): 0.5 µg/mL (≈ 0.431 µM); Minimum inhibitory concentration ([10]; FADDI-AB034): 1 µg/mL (≈ 0.862 µM); Minimum inhibitory concentration ([11]; ATCC 27853): 0.5 µg/mL (≈ 0.431 µM); Minimum inhibitory concentration ([12]; Kp BM1): 0.5 µg/mL (≈ 0.431 µM); Minimum inhibitory concentration ([13]; FADDI-EC006): 0.5 µg/mL (≈ 0.431 µM)
CC[C@@H]1NC(=O)[C@@H](CC(C)C)NC(=O)[C@H](CCN)NC(=O)[C@@H](NC(=O)[C@H](CN)NC(=O)[C@@H](NC(=O)[C@H](CCN)NC(=O)CCc2c[nH]c3ccccc23)[C@@H](C)O)CCNC(=O)[C@H]([C@@H](C)O)NC(=O)[C@H](CCN)NC(=O)[C@H](CCN)NC1=O [Compound 104] ({Propanoyl(3-indol-3-yl)}-[Dab]T[Dap][Dab][Dab][dL][Abu][Dab][Dab]T; lactam 4-C) | – | – | – | – | – | – | – | – | – | – | – | – | – | – | – | 0.5 µg/mL (≈ 0.432 µM) | <0.125 µg/mL | <0.125 µg/mL | <0.125 µg/mL | <0.125 µg/mL | Minimum inhibitory concentration ([6]; ATCC 17978): 0.5 µg/mL (≈ 0.432 µM); Minimum inhibitory concentration ([7]; FADDI-PA038): 0.5 µg/mL (≈ 0.432 µM); Minimum inhibitory concentration ([8]; FADDI-KP032): <0.125 µg/mL; Minimum inhibitory concentration ([9]; FADDI-PA022): 0.25 µg/mL (≈ 0.216 µM); Minimum inhibitory concentration ([10]; FADDI-AB034): 0.5 µg/mL (≈ 0.432 µM); Minimum inhibitory concentration ([11]; ATCC 27853): 0.25 µg/mL (≈ 0.216 µM); Minimum inhibitory concentration ([12]; Kp BM1): <0.125 µg/mL; Minimum inhibitory concentration ([13]; FADDI-EC006): 0.25 µg/mL (≈ 0.216 µM)
Polymyxin B [reference compound] | 0.25 µg/mL | – | – | 0.5 µg/mL | 0.5 µg/mL | 0.25 µg/mL | <0.125 µg/mL | 1 µg/mL | 1 µg/mL | <0.125 µg/mL | 1 µg/mL | 0.5 µg/mL | 1 µg/mL | 0.5 µg/mL | 0.5 µg/mL | – | – | – | – | – | Minimum inhibitory concentration ([1]; clinically used antibiotics, clinical isolate A. baumannii FADDI-AB030): 0.25 µg/mL
